Source: PubChem BioAssay AID330 (DTP/NCI, 2004)
Where “and” joins values, the source holds several entries; their conditions need not be identical. Identical values can stand only once. Toxic doses and inconclusive results are not listed.

Tested on: P388 leukemia ip, CD2F1 mice, survival T/C
Assay: NCI In Vivo Anticancer Drug Screen. Data for tumor model P388 Leukemia (intraperitoneal) in CD2F1 (CDF1) mice
Conditions: endpoint: median survival time, higher = longer survival
In short: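 Mice carrying the transplanted tumor received test compound or vehicle. Survival was recorded in each group, and the value is the treated-group measurement divided by that of the vehicle-treated control group.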

[1] = dose: 50.0 mg/kg/injection, schedule: Q01DX005 (ip), vehicle: saline with Tween-80
[2] = dose: 100.0 mg/kg/injection, schedule: Q01DX005 (ip), vehicle: saline with Tween-80
[3] = dose: 200.0 mg/kg/injection, schedule: Q01DX005 (ip), vehicle: saline with Tween-80
[4] = dose: 50.0 mg/kg/injection, schedule: Q01DX005 (ip), vehicle: Klucel (hydroxypropylcellulose) (HPC)
[5] = dose: 100.0 mg/kg/injection, schedule: Q01DX005 (ip), vehicle: Klucel (hydroxypropylcellulose) (HPC)
[6] = dose: 200.0 mg/kg/injection, schedule: Q01DX005 (ip), vehicle: Klucel (hydroxypropylcellulose) (HPC)
[7] = dose: 60.0 mg/kg/injection, schedule: Q01DX005 (ip), vehicle: saline with Tween-80
[8] = dose: 120.0 mg/kg/injection, schedule: Q01DX005 (ip), vehicle: saline with Tween-80
[9] = dose: 25.0 mg/kg/injection, schedule: Q01DX001 (ip), vehicle: saline with Tween-80
[10] = dose: 50.0 mg/kg/injection, schedule: Q01DX001 (ip), vehicle: saline with Tween-80
[11] = dose: 100.0 mg/kg/injection, schedule: Q01DX001 (ip), vehicle: saline with Tween-80
[12] = dose: 50.0 mg/kg/injection, schedule: Q01DX009 (ip), vehicle: saline with Tween-80
[13] = dose: 100.0 mg/kg/injection, schedule: Q04DX003 (ip), vehicle: saline with Tween-80

Question: CC1[C@@]2(O[C@@H]3C=C4C5CCC6Cc7nc8c(nc7C[C@@]6(C)C5C[C@H](O)[C@@]4(C)[C@]13O)CC1CCc3c(cc4c5c3C(O)C[C@H]5[C@@H](C)C3(O4)OC(C)(C)CC3O)[C@]1(C)C8)O[C@@](C)(CO)C[C@@H]2O (some centres not stated) was tested. Which T/C (dose: 12.5 micrograms/kg/injection, schedule: Q01DX009 (ip), vehicle: saline + alcohol) did it give?
Answer: 109 % of control

Question: And the T/C (dose: 25.0 micrograms/kg/injection, schedule: Q01DX009 (ip), vehicle: saline + alcohol)?
Answer: 107 % of control

Question: What about the T/C (dose: 100.0 micrograms/kg/injection, schedule: Q01DX009 (ip), vehicle: saline + alcohol) of the same compound?
Answer: 98 % of control

Question: O=C(NCCCC1NC(=O)/C(=C(O)/C=C/C2CCCCC2)C1=O)OCc1ccccc1 (configuration not stated) was tested. Which T/C [1] did it give?
Answer: 100 % of control

Question: And the T/C [2]?
Answer: 95 % of control

Question: What about the T/C [3] of the same compound?
Answer: 100 % of control

Question: Which T/C [1] does the source give for c1ccc2c(c1)C(=NCCCN1CCCCCC1)c1cccn1-2 here?
Answer: 100 % of control

Question: And the T/C [2]?
Answer: 100 % of control

Question: And the T/C [3]?
Answer: 100 % of control

Question: O=C(NC[N+]12CCO[B-]1(c1ccccc1)OCC2)c1ccccc1O (configuration not stated) was tested. Which T/C [4] did it give?
Answer: 106 % of control

Question: What about the T/C [5] of the same compound?
Answer: 98 % of control

Question: And the T/C [6]?
Answer: 103 % of control

Question: With Nc1nnc(CCC(=O)Nc2ccccc2Cl)o1 as the compound, how does the T/C [7] read?
Answer: 98 % of control

Question: And the T/C [8]?
Answer: 101 % of control

Question: And the T/C (dose: 240.0 mg/kg/injection, schedule: Q01DX005 (ip), vehicle: saline with Tween-80)?
Answer: 97 % of control

Question: Which results are given for CNP1(NC)=NP(N(C)C)(N(C)C)=NP(N(C)C)(N(C)C)=N1?
Answer: T/C (dose: 50.0 mg/kg/injection, schedule: Q01DX005 (ip), vehicle: saline): 102 % of control; T/C (dose: 100.0 mg/kg/injection, schedule: Q01DX005 (ip), vehicle: saline): 112 % of control; T/C (dose: 200.0 mg/kg/injection, schedule: Q01DX005 (ip), vehicle: saline): 104 % of control

Question: Which results are given for CNC(=S)c1cccc(-c2ccccn2)n1?
Answer: T/C (dose: 12.5 mg/kg/injection, schedule: Q04DX003 (ip), vehicle: Klucel (hydroxypropylcellulose) (HPC)): 104 % of control; T/C (dose: 25.0 mg/kg/injection, schedule: Q04DX003 (ip), vehicle: Klucel (hydroxypropylcellulose) (HPC)): 113 % of control; T/C (dose: 50.0 mg/kg/injection, schedule: Q04DX003 (ip), vehicle: Klucel (hydroxypropylcellulose) (HPC)): 108 % of control and 91 % of control

Question: How did the T/C [7] turn out when COc1ccc2n[se]nc2c1 was run?
Answer: 93 % of control

Question: And the T/C [8]?
Answer: 93 % of control

Question: How did the T/C (dose: 6.25 mg/kg/injection, schedule: Q01DX009 (ip), vehicle: suspension in saline) turn out when c1ccc(C23CC2COP3(c2ccccc2)(c2ccccc2)c2ccccc2)cc1 (configuration not stated) was run?
Answer: 90 % of control

Question: What about the T/C (dose: 12.5 mg/kg/injection, schedule: Q01DX009 (ip), vehicle: suspension in saline) of the same compound?
Answer: 98 % of control

Question: What about the T/C (dose: 25.0 mg/kg/injection, schedule: Q01DX009 (ip), vehicle: suspension in saline) of the same compound?
Answer: 93 % of control

Question: For CC(C)(C)OC(=O)NC(Cc1ccc(O)cc1)C(=O)O (configuration not stated), which T/C [4] is on record?
Answer: 102 % of control

Question: What about the T/C [5] of the same compound?
Answer: 103 % of control

Question: And the T/C [6]?
Answer: 96 % of control

Question: Which results are given for CN=C(C)Nc1ccccc1OC?
Answer: T/C (dose: 12.5 mg/kg/injection, schedule: Q01DX009 (ip), vehicle: saline): 111 % of control; T/C (dose: 25.0 mg/kg/injection, schedule: Q01DX009 (ip), vehicle: saline): 114 % of control; T/C (dose: 50.0 mg/kg/injection, schedule: Q01DX009 (ip), vehicle: saline): 113 % of control and 97 % of control

Question: Which results are given for CC12CCCN1CC=C2CO (configuration not stated)?
Answer: T/C [9]: 100 % of control; T/C [10]: 96 % of control; T/C [11]: 100 % of control

Question: Which T/C [1] does the source give for COC1NC(=O)Oc2ccccc21 (configuration not stated) here?
Answer: 109 % of control and 97 % of control

Question: And the T/C [2]?
Answer: 108 % of control and 109 % of control

Question: What about the T/C [3] of the same compound?
Answer: 114 % of control

Question: Which T/C (dose: 12.5 mg/kg/injection, schedule: Q01DX009 (ip), vehicle: saline with Tween-80) does the source give for NC(=Nc1ccccc1)Nc1ccccc1 here?
Answer: 99 % of control

Question: What about the T/C (dose: 25.0 mg/kg/injection, schedule: Q01DX009 (ip), vehicle: saline with Tween-80) of the same compound?
Answer: 104 % of control

Question: And the T/C [12]?
Answer: 102 % of control

Question: CC(=O)NC(=O)Cc1ccccc1 was tested. Which T/C (dose: 100.0 mg/kg/injection, schedule: Q04DX002 (ip), vehicle: Klucel (hydroxypropylcellulose) (HPC)) did it give?
Answer: 94 % of control

Question: And the T/C (dose: 200.0 mg/kg/injection, schedule: Q04DX002 (ip), vehicle: Klucel (hydroxypropylcellulose) (HPC))?
Answer: 95 % of control

Question: And the T/C (dose: 400.0 mg/kg/injection, schedule: Q04DX002 (ip), vehicle: Klucel (hydroxypropylcellulose) (HPC))?
Answer: 97 % of control

Question: Which T/C [9] does the source give for NC(=O)c1c(Cl)nc2sccn12 here?
Answer: 107 % of control

Question: What about the T/C [10] of the same compound?
Answer: 104 % of control

Question: What about the T/C [11] of the same compound?
Answer: 101 % of control and 112 % of control

Question: How did the T/C (dose: 100.0 mg/kg/injection, schedule: Q01DX001 (ip), vehicle: Klucel (hydroxypropylcellulose) (HPC)) turn out when OC1CC2(CC3(C1)SCCS3)SCCS2 (configuration not stated) was run?
Answer: 102 % of control

Question: What about the T/C (dose: 200.0 mg/kg/injection, schedule: Q01DX001 (ip), vehicle: Klucel (hydroxypropylcellulose) (HPC)) of the same compound?
Answer: 99 % of control

Question: What about the T/C (dose: 400.0 mg/kg/injection, schedule: Q01DX001 (ip), vehicle: Klucel (hydroxypropylcellulose) (HPC)) of the same compound?
Answer: 106 % of control

Question: Which results are given for CCCCB1OB(CCCC)OB(CCCC)O1?
Answer: T/C [12]: 92 % of control; T/C (dose: 100.0 mg/kg/injection, schedule: Q01DX009 (ip), vehicle: saline with Tween-80): 105 % of control; T/C (dose: 200.0 mg/kg/injection, schedule: Q01DX009 (ip), vehicle: saline with Tween-80): 105 % of control

Question: For Cc1ccnc(NC(=O)Nc2cc(Cl)ccc2Cl)c1, which T/C (dose: 50.0 mg/kg/injection, schedule: Q01DX009 (ip), vehicle: Klucel (hydroxypropylcellulose) (HPC)) is on record?
Answer: 100 % of control

Question: What about the T/C (dose: 100.0 mg/kg/injection, schedule: Q01DX009 (ip), vehicle: Klucel (hydroxypropylcellulose) (HPC)) of the same compound?
Answer: 87 % of control

Question: Which T/C (dose: 60.0 mg/kg/injection, schedule: Q01DX005 (ip), vehicle: saline) does the source give for CN(C)CC(CN(C)C)C(=O)c1ccc(OC2OC(CO)C(O)C(O)C2O)cc1 (configuration not stated) here?
Answer: 103 % of control

Question: What about the T/C (dose: 120.0 mg/kg/injection, schedule: Q01DX005 (ip), vehicle: saline) of the same compound?
Answer: 99 % of control

Question: And the T/C (dose: 240.0 mg/kg/injection, schedule: Q01DX005 (ip), vehicle: saline)?
Answer: 105 % of control

Question: How did the T/C [7] turn out when Cc1oc(C)c(-c2ccccc2)c1C(=O)N1CCN(C)CC1 was run?
Answer: 98 % of control

Question: What about the T/C [8] of the same compound?
Answer: 98 % of control

Question: How did the T/C [4] turn out when Cn1cnc([N+](=O)[O-])c1Sc1ncccc1C(=O)O was run?
Answer: 112 % of control

Question: And the T/C [5]?
Answer: 114 % of control

Question: And the T/C [6]?
Answer: 105 % of control

Question: What does the source list for Cc1nc2ccc(NC(=O)NC(=O)c3c(F)cccc3F)cc2s1?
Answer: T/C (dose: 50.0 mg/kg/injection, schedule: Q04DX002 (ip), vehicle: saline with Tween-80): 92 % of control; T/C (dose: 100.0 mg/kg/injection, schedule: Q04DX002 (ip), vehicle: saline with Tween-80): 92 % of control; T/C (dose: 200.0 mg/kg/injection, schedule: Q04DX002 (ip), vehicle: saline with Tween-80): 89 % of control

Question: With CCCCCCCCCCCCCCCC(=O)OCCCCCCCCCCC as the compound, how does the T/C (dose: 25.0 mg/kg/injection, schedule: Q04DX003 (ip), vehicle: saline with Tween-80) read?
Answer: 113 % of control

Question: And the T/C (dose: 50.0 mg/kg/injection, schedule: Q04DX003 (ip), vehicle: saline with Tween-80)?
Answer: 95 % of control

Question: What about the T/C [13] of the same compound?
Answer: 90 % of control

Question: Which results are given for COC(=O)C1=C(C(=O)OC)C2C=CC1C(=O)N2/C=C/c1ccccc1 (configuration not stated)?
Answer: T/C [13]: 102 % of control; T/C (dose: 400.0 mg/kg/injection, schedule: Q04DX003 (ip), vehicle: saline with Tween-80): 117 % of control

Question: What does the source list for CCCCOc1ccc(C(=O)N/N=C(\C)[C@]2(O)Cc3c(O)c4c(c(O)c3[C@@H](OC3CC(N)C(O)C(C)O3)C2)C(=O)c2c(OC)cccc2C4=O)cc1 (some centres not stated)?
Answer: T/C (dose: 0.12 mg/kg/injection, schedule: Q01DX009 (ip), vehicle: water): 115 % of control; T/C (dose: 0.5 mg/kg/injection, schedule: Q01DX009 (ip), vehicle: water): 150 % of control and 151 % of control; T/C (dose: 1.0 mg/kg/injection, schedule: Q01DX009 (ip), vehicle: water): 152 % of control and 160 % of control; T/C (dose: 2.0 mg/kg/injection, schedule: Q01DX009 (ip), vehicle: water): 160 % of control and 179 % of control; T/C (dose: 5.0 mg/kg/injection, schedule: Q01DX001 (ip), vehicle: water): 153 % of control; T/C (dose: 20.0 mg/kg/injection, schedule: Q01DX001 (ip), vehicle: water): 106 % of control
